Where two headings read alike, the source gives them in different places.
Test system: HCV 1b genotype replicon
Assay: HCV replicon assay (qRT-PCR or luciferase), genotype-1b replicon
Format: cell-based
Conditions: Hepatitis C virus, HCV 1b replicon
Text: HCV replicon cell lines (kindly provided by R. Bartenschlager) isolated from colonies as described by Lohman et. al. (Lohman et al. (1999) Science 285: 110-113, expressly incorporated by reference in its entirety) and used for all experiments. The HCV replicon has the nucleic acid sequence set forth in EMBL Accession No.: AJ242651, the coding sequence of which is from nucleotides 1801 to 8406.
The coding sequence of the published HCV replicon was synthesized and subsequently assembled in a modified plasmid pBR322 (Promega, Madison, Wis.) using standard molecular biology techniques. One replicon cell line (“SGR 11-7”) stably expresses HCV replicon RNA which consists of (i) the HCV 5′UTR fused to the first 12 amino acids of the capsid protein, (ii) the neomycin phosphotransferase gene (neo), (iii) the IRES from encephalomyocarditis virus (EMCV) and (iv) HCV NS2 to NS5B genes and the HCV 3′UTR. Another replicon cell line (“Huh-luc/neo-ET”) described by Vrolijk et. al. (Vrolijk et. al. (2003) Journal of Virological Methods 110:201-209, expressly incorporated by reference in its entirety) stably expresses HCV replicon RNA which consists of (i) the HCV 5′UTR fused to the first 12 amino acids of the capsid protein, (ii) the firefly luciferase reporter gene, (iii) the ubiquitin gene, (iv) the neomycin phosphotransferase gene (neo), (v) the IRES from encephalomyocarditis virus (EMCV) and (vi) HCV NS3 to NS5B genes that harbor cell culture adaptive mutations (E1202G, T12801, K1846T) and the HCV 3′UTR.
These cell lines are maintained at 37° C., 5% CO2, 100% relative humidity in DMEM (Cat#11965-084, Invitrogen), with 10% fetal calf serum (“FCS”, Invitrogen), 1% non-essential amino acids (Invitrogen), 1% of Glutamax (Invitrogen), 1% of 100× penicillin/streptomycin (Cat#15140-122, Invitrogen) and Geneticin (Cat#10131-027, Invitrogen) at 0.75 mg/ml or 0.5 mg/ml for 11-7 and Huh-luc/neo-ET cells, respectively.
EC50 values of single agent compounds and combinations are determined by HCV RNA detection using quantitative RT-PCR, according to the manufacturer's instructions, with a TAQMAN® One-Step RT-PCR Master Mix Reagents Kit (Cat# AB 4309169, Applied Biosystems) on an ABI Model 7500 thermocycler. The TAQMAN primers to use for detecting and quantifying HCV RNA obtained from Integrated DNA Technologies. HCV RNA is normalized to GAPDH RNA levels in drug-treated cells, which is detected and quantified using the Human GAPDH Endogenous Control Mix (Applied Biosystems, AB 4310884E). Total cellular RNA is purified from 96-well plates using the RNAqueous 96 kit (Ambion, Cat# AM1812). Chemical agent cytotoxicity is evaluated using an MTS assay according to the manufacturer's directions (Promega).
Since clinical drug resistance often develops in viral infections following single agent therapies, there is a need to assess the additive, antagonistic, or synergistic properties of combination therapies. We used the HCV replicon system to assess the potential use of the compound of the present invention or in combination therapies with Interferon alpha, cyclosporine analogs and inhibitors targeting other HCV proteins. The acute effects of a single or combinations of drugs are studied in the “Huh-luc/neo-ET” replicon with each chemical agent titrated in an X or Y direction in a 6 point two-fold dilution curve centered around the EC50 of each drug. Briefly, replicon cells are seeded at 7,000 cells per well in 90 ul DMEM (without phenol red, Invitrogen Cat.#31053-036) per well with 10% FCS, 1% non-essential amino acids, 1% of Glutamax and 1% of 100× penicillin/streptomycin and incubated overnight at 37° C., 5% CO2, 100% relative humidity. […]

[1] = read-out: Genotype-1b replicon EC50
[2] = read-out: Genotype-1b replicon EC50 Range

SMILES	EC50 [1] [nM]	EC50 [2] [nM]
C=C1C[C@@H](c2nc3cc(C#Cc4ccc(-c5c[nH]c([C@@H]6CCCN6C(=O)[C@@H](NC(=O)OC)C(C)C)n5)cc4)ccc3[nH]2)N(C(=O)[C@@H](NC(=O)OC)C(C)C)C1 [Example 83]	0.0057	< 0.01
C=C1C[C@@H](c2nc(-c3ccc(-c4ccc(-c5c[nH]c([C@@H]6CCCN6C(=O)[C@@H](NC(=O)OC)C(C)C)n5)cc4)cc3)c[nH]2)N(C(=O)[C@@H](NC(=O)OC)C(C)C)C1 [Example 252]	0.0112	0.01 to 1
C=C1C[C@@H](c2nc(-c3ccc(C#Cc4ccc5[nH]c([C@@H]6CCCN6C(=O)[C@@H](NC(=O)OC)C(C)C)nc5c4)cc3)c[nH]2)N(C(=O)[C@@H](NC(=O)OC)C(C)C)C1 [Example 300]	0.0044	< 0.01
CON=C1C[C@@H](c2nc3cc(C#Cc4ccc(-c5c[nH]c([C@@H]6CCCN6C(=O)[C@@H](NC(=O)OC)C(C)C)n5)cc4)ccc3[nH]2)N(C(=O)[C@@H](NC(=O)OC)C(C)C)C1 [Example 316]	–	< 0.01
C=C1C[C@@H](c2nc(-c3ccc(C#Cc4ccc5[nH]c([C@@H]6C[C@@]7(CCCO7)CN6C(=O)[C@@H](NC(=O)OC)C(C)C)nc5c4)cc3)c[nH]2)N(C(=O)[C@@H](NC(=O)OC)C(C)C)C1 [Example 319]	–	0.01 to 1
C=C1C[C@@H](c2nc(-c3ccc(C#Cc4ccc5[nH]c([C@@H]6C[C@@]7(CCOC7)CN6C(=O)[C@@H](NC(=O)OC)C(C)C)nc5c4)cc3)c[nH]2)N(C(=O)[C@@H](NC(=O)OC)C(C)C)C1 [Example 321]	–	0.01 to 1
C=C1C[C@@H](c2nc(-c3ccc(C#Cc4ccc5[nH]c([C@@H]6C[C@]7(CCOC7)CN6C(=O)[C@@H](NC(=O)OC)C(C)C)nc5c4)cc3)c[nH]2)N(C(=O)[C@@H](NC(=O)OC)C(C)C)C1 [Example 323]	0.0092	< 0.01
C=C1C[C@@H](c2nc(-c3ccc(C#Cc4ccc5[nH]c([C@@H]6CC7(CC7)CN6C(=O)[C@@H](NC(=O)OC)C(C)C)nc5c4)cc3)c[nH]2)N(C(=O)[C@@H](NC(=O)OC)C(C)C)C1 [Example 325]	0.0059	< 0.01
C=C1C[C@@H](c2nc(-c3ccc(C#Cc4ccc5[nH]c([C@@H]6C[C@@]7(CC=CCO7)CN6C(=O)[C@@H](NC(=O)OC)C(C)C)nc5c4)cc3)c[nH]2)N(C(=O)[C@@H](NC(=O)OC)C(C)C)C1 [Example 327]	–	< 0.01
C=C1C[C@@H](c2nc(-c3ccc(C#Cc4ccc5[nH]c([C@@H]6C[C@]7(CCCOC7)CN6C(=O)[C@@H](NC(=O)OC)C(C)C)nc5c4)cc3)c[nH]2)N(C(=O)[C@@H](NC(=O)OC)C(C)C)C1 [Example 329]	–	< 0.01
C=C1C[C@@H](c2nc(-c3ccc(C#Cc4ccc5[nH]c([C@@H]6C[C@@]7(CCCOC7)CN6C(=O)[C@@H](NC(=O)OC)C(C)C)nc5c4)cc3)c[nH]2)N(C(=O)[C@@H](NC(=O)OC)C(C)C)C1 [Example 331]	0.0137	0.01 to 1
COC(=O)N[C@H](C(=O)N1CCC[C@H]1c1nc(-c2ccc(C#Cc3ccc4[nH]c([C@@H]5CC(=C6CC6)CN5C(=O)[C@@H](NC(=O)OC)C(C)C)nc4c3)cc2)c[nH]1)C(C)C [Example 334]	0.013	0.01 to 1
C=C1C[C@@H](c2nc(-c3ccc(C#Cc4ccc5[nH]c([C@@H]6CC(=C)CN6C(=O)[C@@H](NC(=O)OC)C(C)C)nc5c4)cc3)c[nH]2)N(C(=O)[C@@H](NC(=O)OC)C(C)C)C1 [Example 336]	0.0064	< 0.01

Reference: patent US8653070B2, “Hepatitis C virus inhibitors” (Enanta Pharmaceuticals, Inc., priority 2009, dated 2014)
